Laboratory results as given in patent US5248680A, “Zwitterionic compounds and their n-halo derivatives for use in the treatment of clinical conditions” (Bloomfield D.A., priority 1990, dated 1993).
Like-named read-outs stand apart in the source and are kept apart here.

How the values were obtained:
[1] = tested on: peripheral blood neutrophils; assay: Chemiluminescence (reactive oxidant production) of peripheral blood neutrophils stimulated with calcium ionophore; type: cell-based; settings: Homo sapiens, Neutrophil, mean ± S.E.M.; for activity at 10000 µM: 10 mM zwitterionic compound, normal neutrophils, read-out: Chemiluminescence activity of normal neutrophils; for activity at 40000 µM: 40 mM taurine, read-out: Chemiluminesence production by neutrophils
From the text: Patients were selected with mild to moderate plaque-type psoriasis on the basis of clinical and histological evidence of disease. Normal volunteers were selected from laboratory personnel without personal or family history of inflammatory disease. Disease control groups included: a) patients with eczema, acne and dermatitis herpetiformis; and b) patients with Crohn's disease and ulcerative colitis. Blood samples from each subject were drawn into sodium heparin Vacutainers® (Vacutainer is a Trade Mark). The inflammatory cells (neutrophils) were isolated by dextran sedimentation and FICOLL-PAQUE®(FICOLL-PLAQUE is a Trade Mark) gradient centrifugation. Viability and purity were assessed by fluorescence microscopy, using ethidium bromide and acridine orange staining. […] Chemiluminescence activity of the peripheral blood neutrophils was tested using the method of Bloomfield, F. J. and Young, M. M. (Inflammation, (1982) 6, 257, hereby incorporated by reference), using calcium ionophore (2μ Molar) as stimulant instead of opsonized zymosan. Chemiluminescence is a measure of the production of reactive oxidants by neutrophils in response to an inflammatory stimulus. It was observed that there was significant reduction in chemiluminescence activity by neutrophils in the taurine-treated and HEPES-treated cells compared to control cells in all groups.

[2] = tested on: myeloperoxidase; assay: Myeloperoxidase activity of neutrophils after preincubation with zwitterion; type: cell-based, human; settings: mean ± S.E.M.; for Myeloperoxidase activity of normal neutrophils: 10 mM zwitterionic compound; for Myeloperoxidase activity of neutrophils: 40 mM taurine
From the text: (§1) Patients were selected with mild to moderate plaque-type psoriasis on the basis of clinical and histological evidence of disease. Normal volunteers were selected from laboratory personnel without personal or family history of inflammatory disease. Disease control groups included: a) patients with eczema, acne and dermatitis herpetiformis; and b) patients with Crohn's disease and ulcerative colitis.
(§2) Blood samples from each subject were drawn into sodium heparin Vacutainers® (Vacutainer is a Trade Mark). The inflammatory cells (neutrophils) were isolated by dextran sedimentation and FICOLL-PAQUE®(FICOLL-PLAQUE is a Trade Mark) gradient centrifugation. Viability and purity were assessed by fluorescence microscopy, using ethidium bromide and acridine orange staining.

[3] = tested on: leukotriene B4; assay: Degradation of standard leukotriene B4 measured by radioimmunoassay; type: biochemical; settings: data not shown
From the text: (§3) It was therefore proposed to test the hypothesis that HEPES could inactivate leukotriene B4 by indirect stimulation of MPO leading to increased production of hypochlorous acid from cellular hydrogen peroxide.

[4] = tested on: carrageenan induced paw oedema; assay: Carrageenan-induced paw oedema in rats; type: in vivo, rat; settings: for percentage increase in paw volume: 1 h after carrageenan, mean ± S.E.M.; for reduction in paw oedema: versus control
Protocol: The studies were conducted on inbred Wistar strain albino rats (120-180 g) of either sex. The rats were housed in colony cages at an ambient temperature of 25°±2° C. and fed on standard pellet chow. The rats were anaesthetized using pentobarbitone sodium, their hind paws were marked and the volume measured. […] The control animals were injected with 10 μl of 0.9% saline solution. […] One hour following the carrageenan injection the hind paw volume was measured again. A 5 ml blood sample was taken from each animal into sodium heparin Vacutainers. Chemiluminescence activity was assayed in the PBMC isolated from each animal.
These studies were also conducted on inbred Wistar strain albino rats (120-180 g) of either sex. The rats were anaesthetized using pentobarbitone sodium prior to marking each hind paw and measuring paw volume. […] The control animals received 0.5 ml of 0.9% NaCl subcutaneously. 30 min after the injections were administered, paw oedema was induced using carrageenan. One hour following carrageenan administration the hind paw volume was measured. A 5 ml blood sample was taken from each animal into sodium heparin Vacutainers and used for chemiluminescence measurement.

[5] = tested on: neutrophils; assay: Leukotriene B4 in supernatants of stimulated neutrophils; type: cell-based, human; settings: Homo sapiens, Neutrophil, 40 mM taurine, mean ± S.E.M., read-out: Leukotriene B4 production by neutrophils
From the text: as §1, §2, §3
For the methodology used in the in vitro studies hereinafter described reference should be made to McLoughlin, D. M. et al. Biochem. Soc. Trans. (1991) 19:73-78 hereby incorporated by reference, except where otherwise stated.

[6] = tested on: neutrophils; assay: Hypochlorous acid production by neutrophils; type: cell-based; settings: Homo sapiens, Neutrophil, 40 mM taurine, mean ± S.E.M.
From the text: as §1, §2

[7] = tested on: monocytes; assay: Leukotriene B4 in stimulated monocytes; type: cell-based, human; settings: preincubation with 10 mM HEPES or 40 mM taurine; data not shown
From the text: as §3

[8] = tested on: neutrophils; assay: Degranulation of lysosomal enzymes by neutrophils stimulated with calcium ionophore; type: cell-based, human; settings: result in words; taurine data not shown
From the text: as §1, §2
Stimulation of the inflammatory process in neutrophils, not only activates the respiratory burst, but as a consequence, is also associated with release of lysosomal enzymes from the cells in a process called degranulation. Degranulation of lysosomal enzymes was stimulated in neutrophils from each group of subjects, using calcium ionophore as inflammatory stimulant.

[9] = tested on: myeloperoxidase; assay: Binding of zwitterion to myeloperoxidase (preliminary studies)
[10] = tested on: catalase; assay: Catalase activity of neutrophils after preincubation; type: cell-based, human; settings: neutrophils preincubated with HEPES or taurine; data not shown

O=S(=O)(O)CCCN1CCN(CCO)CC1 [(H)EPPS, N-2-hydroxyethylpiperazine-N'3-propanesulphonic acid]
activity at 10000 µM [1]: 50.9 ± 7.38% | Myeloperoxidase activity of normal neutrophils [2]: marked effect on MPO activity | Myeloperoxidase activity of normal neutrophils ([2]; 10000 µM): 348 ± 15.1 percentage activity of control

NC(=O)CNCCS(=O)(=O)O [ACES, N-(2-acetamido)-2-aminoethanesulphonic acid]
activity at 10000 µM [1]: 12.9 ± 2.75% | Myeloperoxidase activity of normal neutrophils [2]: marked effect on MPO activity | Myeloperoxidase activity of normal neutrophils ([2]; listed as ACE, 10000 µM): 166 ± 18.2 percentage activity of control

NC(=O)CN(CC(=O)O)CC(=O)O [ADA, N-(2-acetamido)iminodiacetic acid]
activity at 10000 µM [1]: 1.45 ± 0.27% | Myeloperoxidase activity of normal neutrophils [2]: 214 ± 32.3 percentage activity of control

O=S(=O)(O)CCN(CCO)CCO [BES, N,N-bis(2-hydroxyethyl)-2-aminoethanesulphonic acid]
activity at 10000 µM [1]: 4.95 ± 0.93% | Myeloperoxidase activity of normal neutrophils [2]: lesser effect on MPO stimulation | Myeloperoxidase activity of normal neutrophils ([2]; 10000 µM): 138 ± 14.1 percentage activity of control

O=S(=O)(O)CCCNC1CCCCC1 [CAPS, 3-(cyclohexylamino)propanesulphonic acid]
activity at 10000 µM [1]: 87.9 ± 8.87% | Myeloperoxidase activity of normal neutrophils [2]: little effect | Myeloperoxidase activity of normal neutrophils ([2]; 10000 µM): 115 ± 3.6 percentage activity of control

O=S(=O)(O)CCNC1CCCCC1 [CHES, 2-(cyclohexylamino)ethanesulphonic acid]
activity at 10000 µM [1]: 68.4 ± 6.36% | Myeloperoxidase activity of normal neutrophils [2]: little effect | Myeloperoxidase activity of normal neutrophils ([2]; 10000 µM): 120 ± 4.8 percentage activity of control

O=S(=O)(O)CCN1CCOCC1 [MES, 2(N-morpholino)ethanesulphonic acid]
activity at 10000 µM [1]: 3.15 ± 0.67% | Myeloperoxidase activity of normal neutrophils [2]: marked effect on MPO activity | Myeloperoxidase activity of normal neutrophils ([2]; 10000 µM): 264 ± 15.9 percentage activity of control

O=S(=O)(O)CCCN1CCOCC1 [MOPS, 3-(N-morpholino)propanesulphonic]
activity at 10000 µM [1]: 7.27 ± 1.53% | Myeloperoxidase activity of normal neutrophils [2]: lesser effect on MPO stimulation | Myeloperoxidase activity of normal neutrophils ([2]; 10000 µM): 134 ± 13.4 percentage activity of control

O=S(=O)(O)CCN1CCN(CCS(=O)(=O)O)CC1 [PIPES, piperazine-N,N'bis(2-ethanesulphonic acid]
activity at 10000 µM [1]: 4.08 ± 0.97% | Myeloperoxidase activity of normal neutrophils [2]: marked effect on MPO activity | Myeloperoxidase activity of normal neutrophils ([2]; 10000 µM): 199 ± 23.1 percentage activity of control

O=S(=O)(O)CCNC(CO)(CO)CO [TES, N-N[tris(hydroxymethyl)-methyl]-2-aminoethanesulphonic acid]
activity at 10000 µM [1]: 15.6 ± 2.41% | Myeloperoxidase activity of normal neutrophils [2]: lesser effect on MPO stimulation | Myeloperoxidase activity of normal neutrophils ([2]; 10000 µM): 129 ± 20.1 percentage activity of control

OCl [hypochlorous acid, reference compound]
degradation of standard leukotriene B4 [3]: cause degradation of standard leukotriene B4

O=S(=O)(O)CCNCl [taurine chloramine]
degradation of standard leukotriene B4 [3]: cause degradation of standard leukotriene B4

NCCS(=O)(=O)O [taurine, 2-aminoethanesulphonic acid]
activity at 40000 µM ([1]; Normal): 12.7 ± 1.77% | activity at 40000 µM ([1]; Psoriasis): 15.5 ± 2.1% | activity at 40000 µM ([1]; disease controls (a)): 20.3 ± 1.85% | activity at 40000 µM ([1]; disease controls (b)): 30.5 ± 8.6% | percentage increase in paw volume ([4]; I.C.V. 50 μg taurine): 30 ± 4 percentage increase in paw volume | percentage increase in paw volume ([4]; I.C.V. 500 μg taurine): 21 ± 8 percentage increase in paw volume | percentage increase in paw volume ([4]; S.C. 500 μg taurine): 27 ± 2 percentage increase in paw volume | reduction in paw oedema ([4]; i.c.v. 50 μg taurine): 21% | reduction in paw oedema ([4]; i.c.v. 500 μg taurine): 54% | reduction in paw oedema ([4]; s.c. 500 μg taurine): 18% | activity at 40000 µM ([5]; Normal): 64.8 ± 8.3% | activity at 40000 µM ([5]; Psoriasis): 66.5 ± 10.9% | activity at 40000 µM ([5]; disease controls (a)): 73.3 ± 9.95% | activity at 40000 µM ([5]; disease controls (b)): 78 ± 8.6% | activity at 40000 µM ([6]; Normal): 152 ± 14.1% | activity at 40000 µM ([6]; Psoriasis): 167 ± 34.7% | activity at 40000 µM ([6]; disease controls (a)): 142 ± 32.1% | reduction of leukotriene B4 in monocytes [7]: also demonstrated in monocytes | degranulation by preincubated neutrophils compared to control cells [8]: no significant difference in degranulation | Myeloperoxidase activity of neutrophils ([2]; Normal): 564 ± 38.3 percentage activity of control | Myeloperoxidase activity of neutrophils ([2]; Psoriasis): 591 ± 61.8 percentage activity of control | Myeloperoxidase activity of neutrophils ([2]; disease controls (a)): 473 ± 33.7 percentage activity of control | Myeloperoxidase activity of neutrophils ([2]; disease controls (b)): 485 ± 49.2 percentage activity of control | binding to the enzyme (MPO) [9]: did not bind to the enzyme | effect on catalase activity [10]: no effect on catalase activity
